Changes are numbered by the printed parent chain.
Columns and labels:
[1] = target: T1, 5-HT3A receptor Y73F (Homo sapiens, UniProt P46098, Y68F); test: radioligand saturation binding, transfected HEK293 membranes; details: [3H]-palonosetron saturation, 5-HT3A Y73F, 4 °C, 24 h
T1 sequence (P46098 24-478 Y68F): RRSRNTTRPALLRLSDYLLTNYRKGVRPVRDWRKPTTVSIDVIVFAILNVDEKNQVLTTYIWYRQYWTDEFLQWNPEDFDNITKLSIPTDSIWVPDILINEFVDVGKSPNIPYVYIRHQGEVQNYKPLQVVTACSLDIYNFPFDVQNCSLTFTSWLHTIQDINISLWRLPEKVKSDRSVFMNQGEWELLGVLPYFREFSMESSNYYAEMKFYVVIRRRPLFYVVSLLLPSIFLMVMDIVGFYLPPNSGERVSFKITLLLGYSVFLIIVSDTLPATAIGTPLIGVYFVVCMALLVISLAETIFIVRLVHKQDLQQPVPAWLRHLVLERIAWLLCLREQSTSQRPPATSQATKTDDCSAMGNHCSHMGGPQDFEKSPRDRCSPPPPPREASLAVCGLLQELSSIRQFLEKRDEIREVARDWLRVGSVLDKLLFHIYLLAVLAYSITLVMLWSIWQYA
Protocol: (§1) Human embryonic kidney (HEK) 293 cells were cultured on 90 mm tissue culture plates at 37 °C and 7% CO2 in a humidified atmosphere. They were grown in DMEM:F12 (Dulbecco’s Modified Eagle’s Medium/Nutrient Mix F12 (1:1)) with GlutaMAX I™ containing 10% fetal calf serum and passaged when confluent. For radioligand binding studies, cells in 90 mm dishes were transfected at 60–70% confluency using polyethyleneimine and incubated for 3–4 days before use. For FlexStation assays, transfected cells were plated on 96-well plates and incubated 1–2 days before assay. […]
(§2) Eight-point binding assays were performed to produce saturation binding curves. […] Radioactive counts were measured using a Beckman LS6000SC liquid scintillation counter (Fullerton, California, USA).
(§3) Data were analyzed by iterative curve fitting using GraphPad Prism v5 (San Diego, CA) according to the following equation: B=Bmax[L]^n/kdn+[L]^n where B is the amount of bound radioligand, Bmax is the maximum specific binding at equilibrium, [L] is the concentration of radioligand, Kd is the equilibrium dissociation constant of the radioligand, and n is the Hill coefficient.

[2] = target: T2, 5-HT3AB receptor, 5-HT3B subunit H73A (Homo sapiens, UniProt O95264+P46098, H66A); test: as above; details: [3H]-palonosetron saturation, 5-HT3AB with 5-HT3B H73A, 4 °C, 24 h
T2 sequence (P46098 24-478): T1 sequence (P46098 24-478 Y68F) with F45Y
T2 sequence (O95264 22-441 H66A): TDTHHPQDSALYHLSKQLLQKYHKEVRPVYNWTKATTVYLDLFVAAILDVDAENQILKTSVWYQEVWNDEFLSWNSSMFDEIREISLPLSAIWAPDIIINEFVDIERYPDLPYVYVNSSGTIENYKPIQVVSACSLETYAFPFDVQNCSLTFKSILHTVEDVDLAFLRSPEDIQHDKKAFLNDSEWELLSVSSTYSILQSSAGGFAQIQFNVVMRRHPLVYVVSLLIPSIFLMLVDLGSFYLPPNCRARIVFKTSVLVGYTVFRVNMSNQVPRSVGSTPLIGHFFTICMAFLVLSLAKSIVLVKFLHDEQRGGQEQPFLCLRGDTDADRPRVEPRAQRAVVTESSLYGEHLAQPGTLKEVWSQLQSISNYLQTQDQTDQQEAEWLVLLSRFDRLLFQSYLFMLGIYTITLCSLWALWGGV
Protocol: as §1, §2, §3

[3] = target: T3, 5-HT3A receptor D165A (Homo sapiens, UniProt P46098, D160A); test: cell-based
T3 sequence (P46098 24-478 D160A): T1 sequence (P46098 24-478 Y68F) with F45Y, D137A

[4] = target: T3, 5-HT3A receptor D165A; test: radioligand saturation binding, transfected HEK293 membranes; details: [3H]-palonosetron saturation, 5-HT3A D165A, 4 °C, 24 h
Protocol: as §1, §2, §3

[5] = target: T4, 5-HT3AB receptor, 5-HT3B subunit W90C (Homo sapiens, UniProt O95264+P46098, W83C); test: FlexStation membrane potential dye functional assay, HEK293 cells; details: 5-HT concentration-response, 5-HT3AB with 5-HT3B W90C
T4 sequence (P46098 24-478): T1 sequence (P46098 24-478 Y68F) with F45Y
T4 sequence (O95264 22-441 W83C): T2 sequence (O95264 22-441 H66A) with A45H, W62C
Protocol: (§4) Human embryonic kidney (HEK) 293 cells were cultured on 90 mm tissue culture plates at 37 °C and 7% CO2 in a humidified atmosphere. They were grown in DMEM:F12 (Dulbecco’s Modified Eagle’s Medium/Nutrient Mix F12 (1:1)) with GlutaMAX I™ containing 10% fetal calf serum and passaged when confluent. […] For FlexStation assays, transfected cells were plated on 96-well plates and incubated 1–2 days before assay.
(§5) Fluorometric studies were undertaken using a FlexStation® (Molecular Devices, Sunnyvale, CA, USA) as previously described.[11]
(§6) Fluorescence was measured every 2 s for 200 s. […] Concentration–response and inhibition curves were obtained for each mutant, and the fluorescence values were normalized to the maximal response.

[6] = target: T2, 5-HT3AB receptor, 5-HT3B subunit H73A; test: as above; details: 5-HT concentration-response, 5-HT3AB with 5-HT3B H73A
Protocol: as §4, §5, §6

SMILES	Kd [1]	Kd [2]	IC50 [3]	Kd [4]	Hill Coefficient [5]	Hill Coefficient [6]
O=C1c2cccc3c2[C@H](CCC3)CN1[C@@H]1CN2CCC1CC2 [Palonosetron]	0.25 ± 0.04 nM	0.14 ± 0.02 nM	1.33 ± 0.45 nM	0.3 ± 0.08 nM		
NCCc1c[nH]c2ccc(O)cc12 [5-HT, serotonin]					2.0 ± 0.4	1.6 ± 0.2
